# Where two headings read alike, the source gives them in different places.
# Target: TNFα (Homo sapiens, UniProt P01375)
# Test: TNF induced HEK-Blue assay (NF-kB-driven secreted alkaline phosphatase reporter)
# Type: cell-based
# Details: TNFα 0.5 ng/mL, HEK-Blue-CD40L cells, 18 h
# Procedure: TNF or CD40L-Induced HEK-Blue Assay
# Test compounds serially diluted in DMSO were plated in an assay plate (LABCYTE, Cat. # LP-0200) at final concentrations ranging from 0.004 μM to 25 μM. TNFα (final concentration 0.5 ng/mL) or CD40L (final concentration 30 ng/mL) in assay buffer [DMEM, 4.5 g/l glucose (Gibco, Cat. 21063-029), 10% FBS (Sigma, F4135), 1% Penicillin-Streptomycin (Gibco, Cat. 15140-122), 1% Anti-Anti (Gibco, Cat. 15240-112) and 2 mM L-glutamine (Gibco, Cat. 25030-081)] was then added to the assay plate. After a 30 minute pre-incubation at 37° C. and 5% CO2, HEK-Blue™-CD40L cells (INVIVOGEN, Cat. Code hkb-cd40) containing a NF-kB-driven secreted alkaline phosphatase reporter gene were seeded into the assay plate at a density of 20,000 cells per well. This plate was then incubated for 18 h at 37° C. and 5% CO2. Secreted alkaline phosphatase expression was measured using QUANTI-Blue™ (INVIVOGEN, Cat. Code rep-qb1) according to manufacturer's specifications and the assay plate was read on a PerkinElmer Envision at 620 nm.
# Inhibition data for the test compound over a range of concentrations was plotted as percentage inhibition of the test compound (100%=maximum inhibition). IC50 values were determined after correcting for background [(sample read-mean of low control)/(mean of high control-mean of low control)] where by the low control is DMSO without stimulation and high control is DMSO with stimulation. The IC50 is defined as the concentration of test compound which produces 50% inhibition and was quantified using the 4 parameter logistic equation to fit the data.
# [1] = read-out: TNF induced HEK-Blue assay IC50 value
# [2] = TNF induced HEK-Blue assay IC50 value
# TNFα, sequence (P01375 77-233 limits assumed): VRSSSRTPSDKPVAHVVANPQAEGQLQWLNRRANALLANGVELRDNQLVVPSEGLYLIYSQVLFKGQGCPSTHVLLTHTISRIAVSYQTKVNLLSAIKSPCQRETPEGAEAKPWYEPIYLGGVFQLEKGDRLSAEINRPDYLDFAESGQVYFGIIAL
IC50 [1] [nM],IC50 [2] [nM],SMILES
1000 to 10000,,"CC[C@H](Nc1c(Cl)cnc2ccccc12)c1cc(-c2cncnc2)ccc1F [Example 557, (S)-3-chloro-N-(1-(2-fluoro-5-(pyrimidin-5-yl)phenyl)propyl)quinolin-4-amine]"
< 1000,,"CC(C)(O)c1ncc(-c2ccc3ncc(Cl)c(NC(c4ccccc4F)C(C)(C)O)c3c2)cn1 (racemic) [Example 49, 1-((3-chloro-6-(2-(2-hydroxypropan-2-yl)pyrimidin-5-yl)quinolin-4-yl)amino)-1-(2-fluorophenyl)-2-methylpropan-2-ol]"
< 1000,,"CC(C)(O)c1ncc(-c2nc3c(NC(c4ccccc4)C(F)F)c(Cl)cnc3cc2F)cn1 (racemic) [Example 212, 2-(5-(7-chloro-8-((2,2-difluoro-1-phenylethyl)amino)-3-fluoro-1,5-naphthyridin-2-yl)pyrimidin-2-yl)propan-2-ol]"
1000 to 10000,,"C=CCOc1ccc(F)c([C@@H](C)Nc2c(Cl)cnc3ccccc23)c1 [Example 457, (R)—N-(1-(5-(allyloxy)-2-fluorophenyl)ethyl)-3-chloroquinolin-4-amine]"
< 1000,,"C[C@@H](Nc1c(Cl)cnc2ccc(-c3cnc(C(C)(C)O)nc3)cc12)C1CCCCC1 [Example 58, (R)-2-(5-(3-chloro-4-((1-cyclohexylethyl)amino)quinolin-6-yl)pyrimidin-2-yl)propan-2-ol]"
10000 to 25000,,"Cc1nc2ccc(-c3cnc(C(C)(C)O)nc3)cc2c(N[C@H](C)c2cc(-c3nnn[nH]3)ccc2F)c1Cl [Example 412, (R)-2-(5-(3-chloro-4-((1-(2-fluoro-5-(1H-tetrazol-5-yl)phenyl)ethyl)amino)-2-methylquinolin-6-yl)pyrimidin-2-yl)propan-2-ol]"
< 1000,,"C[C@@H](Nc1c(Cl)cnc2ccc(-c3cnc(C(C)(C)O)nc3)cc12)c1cc(CO)ccc1F [Example 430, (R)-2-(5-(3-chloro-4-((1-(2-fluoro-5-(hydroxymethyl)phenyl)ethyl)amino)quinolin-6-yl)pyrimidin-2-yl)propan-2-ol]"
< 1000,,"Cc1nc2ccc(-c3cnc(C(C)(C)O)nc3)cc2c(N[C@H](C)c2cc(Br)ccc2F)c1Cl [Example 316, (R)-2-(5-(4-((1-(5-bromo-2-fluorophenyl)ethyl)amino)-3-chloro-2-methylquinolin-6-yl)pyrimidin-2-yl)propan-2-ol]"
< 1000,,"CC(Nc1c(Cl)cnc2ccc(-c3ccc(C(C)(C)O)cc3)cc12)c1cncn1C (racemic) [Example 210, 2-(4-(3-chloro-4-((1-(1-methyl-1H-imidazol-5-yl)ethyl)amino)quinolin-6-yl)phenyl)propan-2-ol]"
< 1000,,"Cc1ccc(C)c(Nc2c(Cl)c(C(=O)Nc3ccncc3)nc3ccc(-c4ccc(C#N)nc4)cc23)c1 [Example 36, 3-chloro-6-(6-cyanopyridin-3-yl)-4-((2,5-dimethylphenyl)amino)-N-(pyridin-4-yl)quinoline-2-carboxamide]"
10000 to 25000,,"CC(C)(O)c1ncc(-c2ccc3ncc(Cl)c(NCc4ccc(Br)cc4-n4cccn4)c3c2)cn1 [Example 56, 2-(5-(4-((4-bromo-2-(1H-pyrazol-1-yl)benzyl)amino)-3-chloroquinolin-6-yl)pyrimidin-2-yl)propan-2-ol]"
1000 to 10000,,"CC(Cc1cccc2[nH]ccc12)Nc1c(Cl)cnc2ccc(-c3cnc(C(C)(C)O)nc3)cc12 (racemic) [Example 144, 2-(5-(4-((1-(1H-indol-4-yl)propan-2-yl)amino)-3-chloroquinolin-6-yl)pyrimidin-2-yl)propan-2-ol]"
< 1000,,"CC(Cc1ccco1)Nc1c(Cl)cnc2ccc(-c3cnc(C(C)(C)O)nc3)cc12 (racemic) [Example 133, 2-(5-(3-chloro-4-((1-(furan-2-yl)propan-2-yl)amino)quinolin-6-yl)pyrimidin-2-yl)propan-2-ol]"
1000 to 10000,,"CC(Cc1ccc(OC(F)(F)F)cc1)Nc1c(Cl)cnc2ccc(-c3cnc(C(C)(C)O)nc3)cc12 (racemic) [Example 137, 2-(5-(3-chloro-4-((1-(4-(trifluoromethoxy)phenyl)propan-2-yl)amino)quinolin-6-yl)pyrimidin-2-yl)propan-2-ol]"
< 1000,,"Cc1nc2ccc(-c3cnc(N4CCNC(=O)C4)nc3)cc2c(N[C@H](C)c2cc(C(N)=O)ccc2F)c1Cl [Example 447, (R)-3-(1-((3-chloro-2-methyl-6-(2-(3-oxopiperazin-1-yl)pyrimidin-5-yl)quinolin-4-yl)amino)ethyl)-4-fluorobenzamide]"
,< 1000,"CC(Nc1c(Cl)cnc2cc(F)c(-c3cnc(C(C)(C)O)nc3)cc12)c1ccccc1F (single isomer, unassigned) [Example 241, 2-(5-(3-chloro-7-fluoro-4-((1-(2-fluorophenyl)ethyl)amino)quinolin-6-yl)pyrimidin-2-yl)propan-2-ol]"
< 1000,,"C[C@@H](Nc1c(Cl)cnc2ccccc12)c1cc(-c2ccccc2C#N)ccc1F [Example 552, (R)-3′-(1-((3-chloroquinolin-4-yl)amino)ethyl)-4′-fluoro-[1,1′-biphenyl]-2-carbonitrile]"
< 1000,,"CC(Nc1c(Cl)cnc2ccc(-c3cnc(C(C)(C)O)nc3)cc12)[C@H]1CCCNC1 (single isomer, unassigned) [Example 97]"
1000 to 10000,,"C[C@@H](Nc1c(Cl)cnc2ccc(-c3cnc(C(C)(C)O)nc3)cc12)c1cc(C(C)(C)O)ccc1F [Example 410, (R)-2-(5-(3-chloro-4-((1-(2-fluoro-5-(2-hydroxypropan-2-yl)phenyl)ethyl)amino)quinolin-6-yl)pyrimidin-2-yl)propan-2-ol]"
< 1000,,"CC(C)CC(C)Nc1c(Cl)cnc2ccc(-c3cnc(C(C)(C)O)nc3)cc12 (racemic) [Example 135, 2-(5-(3-chloro-4-((4-methylpentan-2-yl)amino)quinolin-6-yl)pyrimidin-2-yl)propan-2-ol]"
,1000 to 10000,"CC(Nc1c(Cl)cnc2cc(F)c(-c3cnc(C(C)(C)O)nc3)cc12)c1ccccc1F (stereo not drawn) [Example 249, 2-(5-(3-chloro-7-fluoro-4-((1-(2-fluorophenyl)ethyl)amino)quinolin-6-yl)pyrimidin-2-yl)propan-2-ol]"
< 1000,,"CC(Nc1c(Cl)cnc2cc(F)c(-c3cnc(C(C)(C)O)nc3)nc12)c1cccc(N)c1 (racemic) [Example 239, 2-(5-(8-((1-(3-aminophenyl)ethyl)amino)-7-chloro-3-fluoro-1,5-naphthyridin-2-yl)pyrimidin-2-yl)propan-2-ol]"
10000 to 25000,,"COc1ncc(-c2ccc(F)c([C@@H](C)Nc3c(Cl)cnc4ccccc34)c2)cn1 [Example 543, (R)-3-chloro-N-(1-(2-fluoro-5-(2-methoxypyrimidin-5-yl)phenyl)ethyl)quinolin-4-amine]"
1000 to 10000,,"COC(=O)[C@H](CN)N1CCN(c2ncc(-c3ccc4ncc(Cl)c(N[C@H](C)c5ccccc5F)c4c3)cn2)CC1 [Example 99, methyl (S)-3-amino-2-(4-(5-(3-chloro-4-(((R)-1-(2-fluorophenyl)ethyl)amino)quinolin-6-yl)pyrimidin-2-yl)piperazin-1-yl) propanoate]"
< 1000,,"C[C@@H](Nc1c(Cl)cnc2ccc(-c3cnc(C(C)(C)O)nc3)cc12)c1cc(N2CCNC2=O)ccc1F [Example 370, (R)-1-(3-(1-((3-chloro-6-(2-(2-hydroxypropan-2-yl)pyrimidin-5-yl)quinolin-4-yl)amino)ethyl)-4-fluorophenyl)imidazolidin-2-one]"
1000 to 10000,,"CC(Nc1c(Cl)cnc2c(Cl)cc(-c3cnc(N4CCNC(=O)C4)nc3)cc12)c1ccccc1F (racemic) [Example 18, 4-(5-(3,8-dichloro-4-((1-(2-fluorophenyl)ethyl)amino)quinolin-6-yl)pyrimidin-2-yl)piperazin-2-one]"
< 1000,,"CNCC(O)c1ccc(-c2cc3c(NC(C)c4ccccc4F)c(Cl)cnc3cc2F)cc1 (single isomer, unassigned) [Example 600, 1-(4-(3-chloro-7-fluoro-4-((1-(2-fluorophenyl)ethyl)amino)quinolin-6-yl)phenyl)-2-(methylamino)ethan-1-ol]"
1000 to 10000,,"CC(C)(O)c1ccc(-c2cc3c(NC4(c5ccccc5F)CC4)c(Cl)cnc3cc2F)cc1 [Example 279, 2-(4-(3-chloro-7-fluoro-4-((1-(2-fluorophenyl)cyclopropyl)amino)quinolin-6-yl)phenyl) propan-2-ol]"
< 1000,,"Cc1nc2ccc(-c3cnc(C(C)(C)O)nc3)cc2c(N[C@H](C)c2cc(CCO)ccc2F)c1Cl [Example 323, (R)-2-(5-(3-chloro-4-((1-(2-fluoro-5-(2-hydroxyethyl)phenyl)ethyl)amino)-2-methylquinolin-6-yl)pyrimidin-2-yl)propan-2-ol]"
< 1000,,"C[C@@H](Nc1c(Cl)cnc2ccccc12)c1cc(-c2cccc(C#N)c2)ccc1F [Example 539, (R)-3′-(1-((3-chloroquinolin-4-yl)amino)ethyl)-4′-fluoro-[1,1′-biphenyl]-3-carbonitrile]"
